Test results as given in BindingDB's records for doi:10.1016/j.bmc.2017.06.015 (China Pharmaceutical University, 2017).

Columns and labels:
[1] = Inhibition of ABCB1 in human K562/A02 cells assessed as potentiation of adriamycin-induced cytotoxicity by measuring ADR IC50 at 5 uM measured after 48 hrs by MTT assay (Rvb = 43.75 to 96.91 uM)
[2] = Inhibition of ABCB1 in human K562/A02 cells assessed as potentiation of adriamycin-induced cytotoxicity by measuring ADR IC50 treated for 48 hrs followed by compound washout measured after 24 hrs by MTT assay (Rvb = 51.34 +/- 5.1 uM)
[3] = Inhibition of ABCB1 in human K562/A02 cells assessed as potentiation of adriamycin-induced cytotoxicity by measuring ADR IC50 treated for 48 hrs followed by compound washout measured immediately by MTT assay (Rvb = 51.34 +/- 5.1 uM)
[4] = Inhibition of ABCB1 in human K562/A02 cells assessed as potentiation of adriamycin-induced cytotoxicity by measuring ADR IC50 measured after 48 hrs by MTT assay (Rvb = 51.34 +/- 5.1 uM)
[5] = Inhibition of ABCB1 in human K562/A02 cells assessed as potentiation of adriamycin-induced cytotoxicity by measuring ADR IC50 treated for 48 hrs followed by compound washout measured after 12 hrs by MTT assay (Rvb = 51.34 +/- 5.1 uM)
[6] = Inhibition of ABCB1 in human K562/A02 cells assessed as potentiation of adriamycin-induced cytotoxicity by measuring ADR IC50 treated for 48 hrs followed by compound washout measured after 6 hrs by MTT assay (Rvb = 51.34 +/- 5.1 uM)
[7] = Inhibition of ABCB1 in human K562/A02 cells assessed as potentiation of adriamycin-induced cytotoxicity by measuring ADR IC50 at 1 uM measured after 48 hrs by MTT assay (Rvb = 43.75 uM)
[8] = Inhibition of ABCB1 in human K562/A02 cells assessed as potentiation of adriamycin-induced cytotoxicity by measuring ADR IC50 at 0.5 uM measured after 48 hrs by MTT assay (Rvb = 43.75 uM)
[9] = molecular target: ATP-dependent translocase ABCB1 (Homo sapiens, UniProt P08183); test: Inhibition of ABCB1 in human K562/A02 cells assessed as potentiation of adriamycin-induced cytotoxicity by measuring ADR IC50 at 5 uM measured after 48 hrs by MTT assay (Rvb = 43.75 to 96.91 uM)
Chain of ATP-dependent translocase ABCB1 (P08183 whole entry): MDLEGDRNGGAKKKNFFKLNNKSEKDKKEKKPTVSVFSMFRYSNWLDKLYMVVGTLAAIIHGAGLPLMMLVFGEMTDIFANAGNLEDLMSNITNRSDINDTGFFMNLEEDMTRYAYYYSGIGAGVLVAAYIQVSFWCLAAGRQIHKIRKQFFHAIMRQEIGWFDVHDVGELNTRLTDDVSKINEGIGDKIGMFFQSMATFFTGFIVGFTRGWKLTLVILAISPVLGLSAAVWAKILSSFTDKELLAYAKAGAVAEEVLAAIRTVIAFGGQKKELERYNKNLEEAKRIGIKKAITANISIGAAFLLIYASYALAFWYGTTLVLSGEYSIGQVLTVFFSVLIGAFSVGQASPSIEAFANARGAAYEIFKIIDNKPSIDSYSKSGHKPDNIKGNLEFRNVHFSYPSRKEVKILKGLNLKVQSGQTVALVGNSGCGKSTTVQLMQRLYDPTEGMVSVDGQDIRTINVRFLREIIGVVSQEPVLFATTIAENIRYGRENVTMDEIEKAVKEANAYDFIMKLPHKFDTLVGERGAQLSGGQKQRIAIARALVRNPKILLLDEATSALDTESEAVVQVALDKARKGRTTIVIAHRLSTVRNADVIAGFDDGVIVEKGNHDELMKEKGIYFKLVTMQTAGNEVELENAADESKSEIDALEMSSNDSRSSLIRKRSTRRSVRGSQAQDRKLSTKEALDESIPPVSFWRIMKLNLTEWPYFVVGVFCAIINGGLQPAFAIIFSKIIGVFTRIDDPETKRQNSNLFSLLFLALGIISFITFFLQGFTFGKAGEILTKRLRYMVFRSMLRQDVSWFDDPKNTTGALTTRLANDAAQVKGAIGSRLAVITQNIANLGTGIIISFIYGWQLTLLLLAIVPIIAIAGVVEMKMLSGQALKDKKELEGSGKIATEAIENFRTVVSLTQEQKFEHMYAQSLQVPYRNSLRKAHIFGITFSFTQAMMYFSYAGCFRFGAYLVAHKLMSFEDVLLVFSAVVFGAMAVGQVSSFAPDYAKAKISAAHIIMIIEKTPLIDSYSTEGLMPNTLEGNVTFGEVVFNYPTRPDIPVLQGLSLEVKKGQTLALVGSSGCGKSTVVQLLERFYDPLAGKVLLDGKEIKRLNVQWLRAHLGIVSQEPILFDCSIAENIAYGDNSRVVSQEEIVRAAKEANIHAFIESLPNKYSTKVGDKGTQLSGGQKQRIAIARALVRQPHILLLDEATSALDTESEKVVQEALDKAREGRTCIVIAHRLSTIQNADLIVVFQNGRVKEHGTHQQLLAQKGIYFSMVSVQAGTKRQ

[10] = Inhibition of ABCB1 in human K562/A02 cells assessed as potentiation of adriamycin-induced cytotoxicity by measuring ADR IC50 at 0.1 uM measured after 48 hrs by MTT assay (Rvb = 43.75 uM)
[11] = Inhibition of ABCB1 in human K562/A02 cells assessed as potentiation of adriamycin-induced cytotoxicity by measuring ADR IC50 at 0.025 uM measured after 48 hrs by MTT assay (Rvb = 43.75 uM)
[12] = Inhibition of ABCB1 in human K562/A02 cells assessed as potentiation of adriamycin-induced cytotoxicity measured after 48 hrs by MTT assay
[13] = Inhibition of ABCB1 in human K562/A02 cells assessed as potentiation of adriamycin-induced cytotoxicity by measuring ADR IC50 at 2.5 uM measured after 48 hrs by MTT assay (Rvb = 43.75 uM)
[14] = Inhibition of ABCB1 in human K562/A02 cells assessed as potentiation of adriamycin-induced cytotoxicity by measuring ADR IC50 at 0.05 uM measured after 48 hrs by MTT assay (Rvb = 43.75 uM)
[15] = Inhibition of ABCB1 in human K562/A02 cells assessed as potentiation of adriamycin-induced cytotoxicity by measuring ADR IC50 at 0.25 uM measured after 48 hrs by MTT assay (Rvb = 43.75 uM)

Compound `COc1cc2c(cc1OC)CN(CCc1ccc(NC(=O)c3cc(OC)c(OC)cc3NC(=O)c3cnc4ccccc4c3)cc1)CC2` has an IC50 [1] of 1.97 µM, an IC50 [2] of 14.4 µM and an IC50 [3] of 3.02 µM. For the same compound, the IC50 [4] was 1600 nM, the IC50 [5] was 8.28 µM and the IC50 [6] was 4.97 µM.
In the case of `COc1cc2c(cc1OC)CN(CCn1cc(COc3ccccc3C(=O)Nc3ccc(C(C)(C)C)cc3)nn1)CC2`, the IC50 [7] is reported as 6.02 µM, the IC50 [2] is reported as 17.2 µM and the IC50 [8] is reported as 12.5 µM. For the same compound, the IC50 [3] was 4.33 µM, the IC50 [9] was 1.27 µM and the IC50 [10] was 34.9 µM. It also gave an IC50 [4] of 1260 nM, an IC50 [5] of 10.3 µM and an IC50 [11] of 37.2 µM. It also gave an EC50 [12] of 256 nM, an IC50 [13] of 3.33 µM and an IC50 [14] of 37.2 µM. For the same compound, the IC50 [15] was 18.4 µM and the IC50 [6] was 6.32 µM.
In the case of `COc1cc2c(cc1OC)CN(CCn1cc(COc3ccccc3C(=O)Nc3ccccc3)nn1)CC2`, the IC50 [1] is reported as 25.5 µM.
`COc1cccc(NC(=O)c2ccccc2OCc2cn(CCN3CCc4cc(OC)c(OC)cc4C3)nn2)c1` gave an IC50 [9] of 8.73 µM.
In the case of `COc1cc2c(cc1OC)CN(CCn1cc(COc3ccccc3C(=O)Nc3ccc(Cl)cc3)nn1)CC2`, the IC50 [1] is reported as 6.93 µM.
`COc1ccc(NC(=O)c2ccccc2OCc2cn(CCN3CCc4cc(OC)c(OC)cc4C3)nn2)cc1OC` gave an IC50 [1] of 7.82 µM.
`COc1ccc(NC(=O)c2ccccc2OCc2cn(CCN3CCc4cc(OC)c(OC)cc4C3)nn2)cc1` gave an IC50 [1] of 8.38 µM.
In the case of `COc1cc2c(cc1OC)CN(CCn1cc(COc3ccccc3C(=O)Nc3ccc(C)cc3)nn1)CC2`, the IC50 [1] is reported as 7.65 µM.
`COc1cc2c(cc1OC)CN(CCn1cc(COc3ccccc3C(=O)Nc3cccc(C)c3)nn1)CC2` gave an IC50 [1] of 12.2 µM.
With `COc1cc2c(cc1OC)CN(CCn1cc(COc3ccccc3NC(=O)c3ccc(C(C)(C)C)cc3)nn1)CC2` the IC50 [1] was 3.42 µM.
`COc1cc2c(cc1OC)CN(CCn1cc(COc3ccccc3C(=O)Nc3ccccc3[N+](=O)[O-])nn1)CC2` gave an IC50 [1] of 26.9 µM.
Compound `COc1cc2c(cc1OC)CN(CCn1cc(COc3ccccc3C(=O)Nc3cccc([N+](=O)[O-])c3)nn1)CC2` has an IC50 [1] of 27.7 µM.
With `COc1cc2c(cc1OC)CN(CCn1cc(COc3ccccc3C(=O)Nc3ccc([N+](=O)[O-])cc3)nn1)CC2` the IC50 [1] was 21.1 µM.
Work on `CCCCc1ccc(NC(=O)c2ccccc2OCc2cn(CCN3CCc4cc(OC)c(OC)cc4C3)nn2)cc1` yielded an IC50 [1] of 6.25 µM.
For `COc1cc2c(cc1OC)CN(CCn1cc(COc3ccccc3C(=O)Nc3ccc(OC(F)(F)F)cc3)nn1)CC2`, the IC50 [1] was 4.52 µM.
For `COc1cc2c(cc1OC)CN(CCn1cc(COc3ccccc3C(=O)Nc3ccc(F)cc3)nn1)CC2`, the IC50 [1] was 8.29 µM.
For `COc1cc2c(cc1OC)CN(CCn1cc(COc3ccccc3C(=O)Nc3cc(OC)c(OC)c(OC)c3)nn1)CC2`, the IC50 [1] was 31.9 µM.
Compound `COc1cc2c(cc1OC)CN(CCn1cc(COc3ccccc3C(=O)Nc3cccc(Cl)c3)nn1)CC2` has an IC50 [1] of 22.8 µM.
